Read-outs that look alike come from different tables or passages of the source. *1 amine or outer side, *2 acyl side, *3 side chain or, on linkers, in order; H or OH if unused. Where a SMILES comes first, the peptide text is derived from it. Bridges are numbered along the chain shown (N, C = ends). Roman numbers before positions name the chains, in order. [ ]: non-standard residue; d: D form. Actinocin(9to1) = Cc1c2oc3c(C)ccc(C(=O)[*:1])c3nc-2c(C(=O)[*:2])c(N)c1=O; NMeV = CN[C@H](C(=O)O)C(C)C; Sar = CNCC(=O)O
Legend:
DDR2 = details: cited from earlier work
[1] = cited from earlier work
DDR2-His = biological target: T1, DDR2-His (Homo sapiens, UniProt Q16832); experiment: Solid-phase binding assay of DDR2-His; details: 25 nM DDR2-His, collagen peptide
T1 sequence (Q16832 22-398): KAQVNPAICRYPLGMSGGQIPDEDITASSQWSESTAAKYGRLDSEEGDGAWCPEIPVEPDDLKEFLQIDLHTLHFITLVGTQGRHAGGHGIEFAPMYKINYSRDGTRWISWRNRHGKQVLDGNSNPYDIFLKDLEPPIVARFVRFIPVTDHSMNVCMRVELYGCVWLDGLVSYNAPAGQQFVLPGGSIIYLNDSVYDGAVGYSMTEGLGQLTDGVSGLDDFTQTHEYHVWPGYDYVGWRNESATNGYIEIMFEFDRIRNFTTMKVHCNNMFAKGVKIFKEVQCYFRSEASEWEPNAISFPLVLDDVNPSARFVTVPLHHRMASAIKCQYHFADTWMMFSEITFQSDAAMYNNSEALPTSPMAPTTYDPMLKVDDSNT

4T1 GFP/luc cells = experiment: Lung colonization after tail vein injection of 4T1 GFP/luc cells in BALB/cJ mice; format: in vivo, mouse; details: treated daily, 7 d
[2] = biological target: the molecule itself
cross-linking = biological target: the molecule itself; experiment: cross-linking
SEC = biological target: the molecule itself; experiment: SEC

Cc1c2oc3c(C)ccc(C(=O)N[C@@H]4C(=O)N[C@H](C(C)C)C(=O)N5CCC[C@H]5C(=O)N(C)CC(=O)N(C)[C@@H](C(C)C)C(=O)O[C@@H]4C)c3nc-2c(C(=O)N[C@@H]2C(=O)N[C@H](C(C)C)C(=O)N3CCC[C@H]3C(=O)N(C)CC(=O)N(C)[C@@H](C(C)C)C(=O)O[C@@H]2C)c(N)c1=O [actinomycin D] (I: T[dV]P[Sar][NMeV] / II: T[dV]P[Sar][NMeV]; ester I:1-I:C, II:1-II:C; linker I:N-II:N via Actinocin(9to1))
DDR2 inhibition in previous in vitro screen (DDR2): weak inhibitor | toxicity profile [1]: high toxicity profile | DDR2 inhibition in ECD solid-phase binding assay (in words) (DDR2-His): inhibits DDR2

Nc1c(C(=O)O)c2nc3c(C(=O)O)cccc3oc-2cc1=O [cinnabarinic acid]
lung colonization by 4T1 GFP/luc cells (4T1 GFP/luc cells): no effect | DDR2 inhibition in ECD solid-phase binding assay (in words) (DDR2-His): inactive

B1: DDR2 F96A/T98A expressed as a full-length receptor in HEK293 cells (receptor, UniProt Q16832 22-855, looked up)
chain: KAQVNPAICRYPLGMSGGQIPDEDITASSQWSESTAAKYGRLDSEEGDGAWCPEIPVEPDDLKEFLQIDLHTLHAIALVGTQGRHAGGHGIEFAPMYKINYSRDGTRWISWRNRHGKQVLDGNSNPYDIFLKDLEPPIVARFVRFIPVTDHSMNVCMRVELYGCVWLDGLVSYNAPAGQQFVLPGGSIIYLNDSVYDGAVGYSMTEGLGQLTDGVSGLDDFTQTHEYHVWPGYDYVGWRNESATNGYIEIMFEFDRIRNFTTMKVHCNNMFAKGVKIFKEVQCYFRSEASEWEPNAISFPLVLDDVNPSARFVTVPLHHRMASAIKCQYHFADTWMMFSEITFQSDAAMYNNSEALPTSPMAPTTYDPMLKVDDSNTRILIGCLVAIIFILLAIIVIILWRQFWQKMLEKASRRMLDDEMTVSLSLPSDSSMFNNNRSSSPSEQGSNSTYDRIFPLRPDYQEPSRLIRKLPEFAPGEEESGCSGVVKPVQPSGPEGVPHYAEADIVNLQGVTGGNTYSVPAVTMDLLSGKDVAVEEFPRKLLTFKEKLGEGQFGEVHLCEVEGMEKFKDKDFALDVSANQPVLVAVKMLRADANKNARNDFLKEIKIMSRLKDPNIIHLLAVCITDDPLCMITEYMENGDLNQFLSRHEPPNSSSSDVRTVSYTNLKFMATQIASGMKYLSSLNFVHRDLATRNCLVGKNYTIKIADFGMSRNLYSGDYYRIQGRAVLPIRWMSWESILLGKFTTASDVWAFGVTLWETFTFCQEQPYSQLSDEQVIENTGEFFRDQGRQTYLPQPAICPDSVYKLMLSCWRRDTKNRPSFQEIHLLLLQQGDE
stoichiometry N [2]: 2

B2: full-length DDR2 expressed in HEK293 cells (receptor, UniProt Q16832 22-855, looked up)
chain: KAQVNPAICRYPLGMSGGQIPDEDITASSQWSESTAAKYGRLDSEEGDGAWCPEIPVEPDDLKEFLQIDLHTLHFITLVGTQGRHAGGHGIEFAPMYKINYSRDGTRWISWRNRHGKQVLDGNSNPYDIFLKDLEPPIVARFVRFIPVTDHSMNVCMRVELYGCVWLDGLVSYNAPAGQQFVLPGGSIIYLNDSVYDGAVGYSMTEGLGQLTDGVSGLDDFTQTHEYHVWPGYDYVGWRNESATNGYIEIMFEFDRIRNFTTMKVHCNNMFAKGVKIFKEVQCYFRSEASEWEPNAISFPLVLDDVNPSARFVTVPLHHRMASAIKCQYHFADTWMMFSEITFQSDAAMYNNSEALPTSPMAPTTYDPMLKVDDSNTRILIGCLVAIIFILLAIIVIILWRQFWQKMLEKASRRMLDDEMTVSLSLPSDSSMFNNNRSSSPSEQGSNSTYDRIFPLRPDYQEPSRLIRKLPEFAPGEEESGCSGVVKPVQPSGPEGVPHYAEADIVNLQGVTGGNTYSVPAVTMDLLSGKDVAVEEFPRKLLTFKEKLGEGQFGEVHLCEVEGMEKFKDKDFALDVSANQPVLVAVKMLRADANKNARNDFLKEIKIMSRLKDPNIIHLLAVCITDDPLCMITEYMENGDLNQFLSRHEPPNSSSSDVRTVSYTNLKFMATQIASGMKYLSSLNFVHRDLATRNCLVGKNYTIKIADFGMSRNLYSGDYYRIQGRAVLPIRWMSWESILLGKFTTASDVWAFGVTLWETFTFCQEQPYSQLSDEQVIENTGEFFRDQGRQTYLPQPAICPDSVYKLMLSCWRRDTKNRPSFQEIHLLLLQQGDE
stoichiometry N (cross-linking): 2

B3: DDR2 F96A/T98A double mutant ECD, His-tagged (domain or fragment, UniProt Q16832 22-399, looked up)
chain: KAQVNPAICRYPLGMSGGQIPDEDITASSQWSESTAAKYGRLDSEEGDGAWCPEIPVEPDDLKEFLQIDLHTLHAIALVGTQGRHAGGHGIEFAPMYKINYSRDGTRWISWRNRHGKQVLDGNSNPYDIFLKDLEPPIVARFVRFIPVTDHSMNVCMRVELYGCVWLDGLVSYNAPAGQQFVLPGGSIIYLNDSVYDGAVGYSMTEGLGQLTDGVSGLDDFTQTHEYHVWPGYDYVGWRNESATNGYIEIMFEFDRIRNFTTMKVHCNNMFAKGVKIFKEVQCYFRSEASEWEPNAISFPLVLDDVNPSARFVTVPLHHRMASAIKCQYHFADTWMMFSEITFQSDAAMYNNSEALPTSPMAPTTYDPMLKVDDSNTR
stoichiometry N (SEC): 2

From PMC6099886 (Proceedings of the National Academy of Sciences of the …, 2018)
